In patent US11034913B2, “Metal working fluid” (Henkel AG & Co. KGaA, priority 2015, dated 2021):

What was measured:
Assay type in all cases: cell-based
[1] = system: mixed Gram-negative bacteria; assay: Minimum inhibitory concentration testing (biostat candidate screening, Phase 1 and Phase 2; dip slide counts); conditions: for Differential Value Scores, Average / Differential Value Scores, Round 1 / Differential Value Scores, Round 2 / Differential Value Scores, Round 3: Phase 1, scale 0-6, 3 = matches DCHA standard; for Differential Value Scores, Average: average of Rounds 1-3; for Differential Value Scores, Round 1 / Differential Value Scores, Round 2 / Differential Value Scores, Round 3: log bacterial counts at 24 and 48 h versus DCHA standard, higher = better; for Biostatic efficacy regarding Gram-negative bacteria compared with the DCHA standard: result in words, 3 wt. % amine in metal working fluid
[2] = system: Mixed Gram Negative Bacteria; assay: Mycobacterium challenge, four-week re-inoculation test: mixed Gram-negative bacteria count; conditions: 5 w/w % dilution
Experimental: (§1) A tap water dilution of the metal working fluid for the Mycobacterium challenge was made to a concentration of 5 w/w %. The sample was tested by Biosan Laboratories, in Warren, Mich., USA, an independent commercial biological laboratory, for biostatic activity against Mycobacterium and against mixed Gram-negative bacteria.
(§2) The test method evaluated the effectiveness of antimicrobial agents in controlling Mycobacterium immunogenum in the presence of high background population of Gram-negative and other bacteria responsible for metal working fluid deterioration. Sample metal working fluids including the biostat of Example 5 and antimicrobial agents were prepared at use concentrations. 1% iron chips were added to the diluted metal working fluid samples. Two microbial populations were then introduced at a 1% level: an undefined Gram-negative bacterial inoculum isolated from a contaminated metal working fluid, and an inoculum containing Mycobacterium immunogenum. The inoculated test metal working fluids were incubated at room temperature (22+2° C.) on an orbital shaker for four weeks. During the four week test period, the metal working fluids were evaluated twice weekly for bacterial and mycobacterial contamination before being re-inoculated with both microbial suspensions at 1% concentrations. This re-inoculation method ensured sufficient viable Gram-negative and Mycobacterium levels throughout the test.

[3] = system: Mycobacterium immunogenum; assay: Mycobacterium challenge, four-week re-inoculation test: Mycobacterium count; conditions: 5 w/w % dilution
Experimental: as §1, §2

[4] = Phase 2, Round 1, dilution 3 %, 24 hours
[5] = Phase 2, Round 1, dilution 3 %, 48 hours
[6] = Phase 2, Round 1, dilution 4 %, 24 hours
[7] = Phase 2, Round 1, dilution 4 %, 48 hours
[8] = Phase 2, Round 1, dilution 5 %, 24 hours
[9] = Phase 2, Round 1, dilution 5 %, 48 hours
[10] = Phase 2, Round 2, dilution 4 %, 24 hours
[11] = Phase 2, Round 2, dilution 4 %, 48 hours
[12] = Phase 2, Round 2, dilution 5 %, 24 hours
[13] = Phase 2, Round 2, dilution 5 %, 48 hours
[14] = Phase 2, Round 2, dilution 6 %, 24 hours
[15] = Phase 2, Round 2, dilution 6 %, 48 hours
[16] = Sample 1, Day 0 (Initial Inoculum)
[17] = Sample 2, Day 0 (Initial Inoculum)

Question: With CN(C)CCN(C)CCN(C)C [C14, Pentamethyldiethylene triamine] as the compound, how does the “Amount of new Gram-negative bacteria colonies” value (from here on “Amount”) [1, 4] read?
Answer: 10^7

Question: And the “Amount” value [1, 5]?
Answer: 10^7

Question: And the “Amount” value [1, 6]?
Answer: 10^7

Question: What about the “Amount” value [1, 7] of the same compound?
Answer: 10^7

Question: And the “Amount” value [1, 8]?
Answer: 10^7

Question: What about the “Amount” value [1, 9] of the same compound?
Answer: 10^7

Question: And the “Amount” value [1, 10]?
Answer: 10^3

Question: What about the “Amount” value [1, 11] of the same compound?
Answer: 10^7

Question: And the “Amount” value [1, 12]?
Answer: 10^2

Question: And the “Amount” value [1, 13]?
Answer: 10^7

Question: What about the “Amount” value [1, 14] of the same compound?
Answer: 10^3

Question: What about the “Amount” value [1, 15] of the same compound?
Answer: 10^7

Question: How did the “Differential Value Scores, Average” value [1] turn out when CC(CN)CCCN (stereo not shown) [Example 5, Methylpentamethylene diamine] was run?
Answer: 3.3

Question: And the “Differential Value Scores, Round 1” value [1]?
Answer: 2.5

Question: What about the “Differential Value Scores, Round 2” value [1] of the same compound?
Answer: 4.5

Question: And the “Differential Value Scores, Round 3” value [1]?
Answer: 3

Question: And the “Biostatic efficacy regarding Gram-negative bacteria compared with the DCHA standard” value [1]?
Answer: outperformed DCHA

Question: And the “Mixed Gram Negative Bacteria count” value [2, 16]?
Answer: ~1 × 10^6 cfu/ml

Question: What about the “Mixed Gram Negative Bacteria count” value ([2]; Sample 1, Day 2) of the same compound?
Answer: <2 cfu/ml

Question: And the “Mixed Gram Negative Bacteria count” value ([2]; Sample 1, Day 7)?
Answer: <2 cfu/ml

Question: What about the “Mixed Gram Negative Bacteria count” value ([2]; Sample 1, Day 9) of the same compound?
Answer: <2 cfu/ml

Question: And the “Mixed Gram Negative Bacteria count” value ([2]; Sample 1, Day 14)?
Answer: <2 cfu/ml

Question: And the “Mixed Gram Negative Bacteria count” value ([2]; Sample 1, Day 16)?
Answer: <2 cfu/ml

Question: What about the “Mixed Gram Negative Bacteria count” value ([2]; Sample 1, Day 21) of the same compound?
Answer: <2 cfu/ml

Question: What about the “Mixed Gram Negative Bacteria count” value ([2]; Sample 1, Day 23) of the same compound?
Answer: <2 cfu/ml

Question: What about the “Mixed Gram Negative Bacteria count” value [2, 17] of the same compound?
Answer: ~1 × 10^6 cfu/ml

Question: What about the “Mixed Gram Negative Bacteria count” value ([2]; Sample 2, Day 2) of the same compound?
Answer: <2 cfu/ml

Question: And the “Mixed Gram Negative Bacteria count” value ([2]; Sample 2, Day 7)?
Answer: <2 cfu/ml

Question: What about the “Mixed Gram Negative Bacteria count” value ([2]; Sample 2, Day 9) of the same compound?
Answer: <2 cfu/ml

Question: What about the “Mixed Gram Negative Bacteria count” value ([2]; Sample 2, Day 14) of the same compound?
Answer: <2 cfu/ml

Question: What about the “Mixed Gram Negative Bacteria count” value ([2]; Sample 2, Day 16) of the same compound?
Answer: <2 cfu/ml

Question: What about the “Mixed Gram Negative Bacteria count” value ([2]; Sample 2, Day 21) of the same compound?
Answer: <2 cfu/ml

Question: What about the “Mixed Gram Negative Bacteria count” value ([2]; Sample 2, Day 23) of the same compound?
Answer: <2 cfu/ml

Question: And the Mycobacterium immunogenum count [3, 16]?
Answer: ~1 × 10^5 cfu/ml

Question: And the Mycobacterium immunogenum count ([3]; Sample 1, Day 2)?
Answer: <2 cfu/ml

Question: And the Mycobacterium immunogenum count ([3]; Sample 1, Day 7)?
Answer: <2 cfu/ml

Question: And the Mycobacterium immunogenum count ([3]; Sample 1, Day 9)?
Answer: <2 cfu/ml

Question: And the Mycobacterium immunogenum count ([3]; Sample 1, Day 14)?
Answer: <2 cfu/ml

Question: And the Mycobacterium immunogenum count ([3]; Sample 1, Day 16)?
Answer: <2 cfu/ml

Question: And the Mycobacterium immunogenum count ([3]; Sample 1, Day 21)?
Answer: <2 cfu/ml

Question: What about the Mycobacterium immunogenum count ([3]; Sample 1, Day 23) of the same compound?
Answer: <2 cfu/ml

Question: What about the Mycobacterium immunogenum count [3, 17] of the same compound?
Answer: ~1 × 10^5 cfu/ml

Question: What about the Mycobacterium immunogenum count ([3]; Sample 2, Day 2) of the same compound?
Answer: <2 cfu/ml

Question: What about the Mycobacterium immunogenum count ([3]; Sample 2, Day 7) of the same compound?
Answer: <2 cfu/ml

Question: And the Mycobacterium immunogenum count ([3]; Sample 2, Day 9)?
Answer: <2 cfu/ml

Question: What about the Mycobacterium immunogenum count ([3]; Sample 2, Day 14) of the same compound?
Answer: <2 cfu/ml

Question: And the Mycobacterium immunogenum count ([3]; Sample 2, Day 16)?
Answer: <2 cfu/ml

Question: What about the Mycobacterium immunogenum count ([3]; Sample 2, Day 21) of the same compound?
Answer: <2 cfu/ml

Question: And the Mycobacterium immunogenum count ([3]; Sample 2, Day 23)?
Answer: <2 cfu/ml

Question: For CCCCCN [Comparative Example C4, Amylamine], which “Differential Value Scores, Average” value [1] is on record?
Answer: 1.7

Question: What about the “Differential Value Scores, Round 1” value [1] of the same compound?
Answer: 1.5

Question: And the “Differential Value Scores, Round 2” value [1]?
Answer: 2.5

Question: What about the “Differential Value Scores, Round 3” value [1] of the same compound?
Answer: 1

Question: And the “Biostatic efficacy regarding Gram-negative bacteria compared with the DCHA standard” value [1]?
Answer: worse biostatic capabilities than the DCHA control

Question: Which “Differential Value Scores, Average” value [1] does the source give for NC1CCCCC1 [C7, Cyclohexylamine] here?
Answer: 1.5

Question: What about the “Differential Value Scores, Round 1” value [1] of the same compound?
Answer: 1

Question: And the “Differential Value Scores, Round 2” value [1]?
Answer: 2.5

Question: What about the “Differential Value Scores, Round 3” value [1] of the same compound?
Answer: 1

Question: Which “Differential Value Scores, Average” value [1] does the source give for NC1CCCCC1N (stereo not shown) [C3, 1,2-cyclohexanediamine] here?
Answer: 2.3

Question: What about the “Differential Value Scores, Round 1” value [1] of the same compound?
Answer: 2

Question: What about the “Differential Value Scores, Round 2” value [1] of the same compound?
Answer: 4

Question: And the “Differential Value Scores, Round 3” value [1]?
Answer: 1

Question: And the “Biostatic efficacy regarding Gram-negative bacteria compared with the DCHA standard” value ([1]; listed as Comparative Example 3)?
Answer: performed below the DCHA standard

Question: NCCN(CCN)CCN [Example 7, Tris(2-aminoethyl)amine] was tested. Which “Amount” value [1, 5] did it give?
Answer: 10^3

Question: What about the “Amount” value [1, 11] of the same compound?
Answer: 10^2

Question: And the “Amount” value [1, 13]?
Answer: 10^2

Question: And the “Amount” value [1, 15]?
Answer: 10^2

Question: What about the “Biostatic efficacy regarding Gram-negative bacteria compared with the DCHA standard” value [1] of the same compound?
Answer: surpassed the DCHA standard

Question: For CN(C)CCCN(C)CCCN(C)C [C13, N,N,N′,N″,N″-pentamethyl-dipropylenetriamine], which “Amount” value [1, 4] is on record?
Answer: 10^7

Question: What about the “Amount” value [1, 5] of the same compound?
Answer: 10^7

Question: And the “Amount” value [1, 6]?
Answer: 10^7

Question: And the “Amount” value [1, 7]?
Answer: 10^7

Question: And the “Amount” value [1, 8]?
Answer: 10^3

Question: What about the “Amount” value [1, 9] of the same compound?
Answer: 10^7

Question: And the “Amount” value [1, 10]?
Answer: 10^2

Question: And the “Amount” value [1, 11]?
Answer: 10^7

Question: What about the “Amount” value [1, 12] of the same compound?
Answer: 10^2

Question: And the “Amount” value [1, 13]?
Answer: 10^7

Question: What about the “Amount” value [1, 14] of the same compound?
Answer: 10^2

Question: And the “Amount” value [1, 15]?
Answer: 10^7

Question: For NC1CCC(N)CC1 (stereo not shown) [Example 4, 1,4-cyclohexanediamine], which “Differential Value Scores, Average” value [1] is on record?
Answer: 3.7

Question: And the “Differential Value Scores, Round 1” value [1]?
Answer: 4

Question: What about the “Differential Value Scores, Round 2” value [1] of the same compound?
Answer: 4.5

Question: What about the “Differential Value Scores, Round 3” value [1] of the same compound?
Answer: 2.5

Question: And the “Biostatic efficacy regarding Gram-negative bacteria compared with the DCHA standard” value [1]?
Answer: better biostatic performance than the DCHA standard
